# Measured values published in patent US20040121965A1, “Method of treating resistant tumors” (Wyeth Holdings Corporation, priority 2002, published 2004).
# Like-named read-outs stand apart in the source and are kept apart here.
# Assays:
# KB-3-1 = test: Cell survival assay (SRB), KB-3-1; format: cell-based, human
# In short: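 IC50 for 50% growth inhibition after 3-day compound exposure, tested in duplicate. SRB protein staining of TCA-fixed cells (10% TCA, 1 hr, 4 °C), solubilised in Tris base and read by absorbance, was used as the survival read-out, with KB-3-1 grown in 20% FCS.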
# [1] = tested on: Human Melanoma Carcinoma Lox; details: staged LOX xenograft; at MTD ('<': MTD not achieved); days 11-15
# Experimental: 2.4. Growth of Tumors in Nude Mice. […] In these experiments, xenografts are implanted subcutaneously into the flanks of nude mice. […] Relative tumor mass compared to controls are assessed during the 21-day post-staging period.
# Groups of 5 female nu/nu mice are injected with 1.5×10^6 KB-3-1 (A) or Lox cells (B). […] Relative tumor growth is determined during the experiment and % T/C calculated. Statistical analyses are Student's t-test of treated time points vs. vehicle (*, P<0.05; **, P<0.01)
# KB-8-5 (MDR1+) = test: Cell survival assay (SRB), KB-8-5 (MDR1+); details: for IC50: Homo sapiens
# KB-V1 (MDR1++) = test: Cell survival assay (SRB), KB-V1 (MDR1++); details: for IC50: Homo sapiens
# KB-HTI-4.0 = test: Cell survival assay, KB-3-1 line made resistant to Example 129 (KB-HTI-4.0); format: cell-based, human; details: for IC50: KB-3-1 line made resistant to Example 129, Table 8, read-out: KB-HTI-4.0 IC50; for (RR) relative resistance vs. parental cells: KB-HTI-4.0 vs KB-3-1
# Excerpt: Cells lines with previously known mechanisms of resistance. […] Res. 8: 207-218,1996); KB-3-1 (parental derived from an epidermoid carcinoma), KB-8.5, KB-V1 (Akiyama S-I, Fojo A, Hanover J A, Pastan I, Gottesman M M. Isolation and genetic characterization of human KB cell lines resistant to multiple drugs. Somatic Cell Mol. Gen., 11: 117-126,1985; Shen D-W, Cardarelli C, Hwang J, Cornwell M, Richert N, Ishii S, Pastan I, Gottesman MM. […] J. Biol. Chem., 261: 7762-7770, 1986); and HL-60 (parental derived from human leukemia) and HL60/AR (McGrath T., Center M. S. Adriamycin resistance in HL60 cells in the absence of detectable P-glycoprotein. Biochem. Res. Commun., 145:1171-1176,1987); A549 and A549.EpoB40 (He L., Yang C.-P.H., Horwitz S. B. Mutations in p-tubulin map to domains involved in regulation of microtubule stability in epothilone-resistant cell lines. Molecular Cancer Therapeutics. 1: 3-10, 2001). HCT-15 human colon carcinoma and DLD-1 human colon carcinoma are obtained from American Tissue Culture Collection. The MX-1W carcinoma is a Wyeth variant orginally obtained as MX-1 breast carcinoma from the National Cancer Institute. Cell lines selected for resistance to Representative Example 129. KB-3-1 cells are selected for resistance to Example 129 by chronically exposing cells to increasing concentrations of Example 129.
# 2.2. Cell Survival Assay: Standard Pharmacological Test Procedure. The concentration of candidate inhibitor required to inhibit 50% of cell growth (IC50) is done according to previously reported methods. […] Compounds are serially diluted into media as 2× stocks and 100 μl added to cells in duplicate. Compounds are incubated with cells for 3 days. At the end of the incubation period the sulforhodamine B (SRB) assay, which measures protein content as an assessment of cell survival, is performed as described previously (Skehan P, Storeng R, Scudiero D, Monks A, McMahon J, Vistica D, Warren J T, Bokesch H, Kenney S, Boyd MR. New calorimetric cytotoxicity assay for anticancer-drug screening. J Natl Cancer Inst 1990 Jul 4;82(13):1107-12) with some modification as follows. For KB-3-1 cells with 20% FCS, media is gently decanted and replaced with 200 μl of serum-free media mixed with cold 50% TCA for a final concentration of 10% TCA. The plates are incubated for 1 hr at 4° C., followed by washing 5 times in cold distilled water, then air dried overnight. The fixed cells are stained for 10 min with 80 μl of 0.04% SRB solution prepared in 1% glacial acetic acid. Stain is discarded and plates washed 5 times in 1% glacial acetic acid, then air-dried until completely dry. Stained cell product is dissolved in 150 μl of 10 mM Trizma Base and placed on a shaker for 20 minutes until fully dissolved. Absorbance is read on a Victor V multi-label plate reader (Perkin Elmer, Gaithersburg, Md.).
# Cells are selected for resistance to Example 129 to understand the frequency and mechanistic basis of resistance.
# [2] = Homo sapiens, KB 3-1, 72 h, amount of drug needed to kill 50% of cells after three days continuous exposure, Table 11, read-out: IC50 in parental cell line KB-3-1
# [3] = Homo sapiens, KB-3-1 parental, Table 8, read-out: KB-3-1 IC50
molecule,measurement,setting,value
"CN[C@H](C(=O)N[C@H](C(=O)N(C)[C@H](/C=C(\C)C(=O)O)C(C)C)C(C)(C)C)C(C)(C)c1ccc(OC)cc1 [Example 57, N,O,β,β-tetramethyl-L-tyrosyl-N^1-[(1S,2E)-3-carboxy-1-isopropyl-2-butenyl]-N^1,3-dimethyl-L-valinamide]",IC50,KB-3-1; [2],1.4 nM
same,IC50,"KB-3-1; Homo sapiens, KB 3-1, KB-3-1 cells (paclitaxel-sensitive parent), read-out: In vitro IC50 (nM) KB-3-1",1.4 nM
same,Activity in nude mice animal model (% T/C @ MTD on days 11-15) LOX,[1],<1^4%
same,Ratio KB85/KB,KB-8-5 (MDR1+),2.9
same,IC50,"KB-8-5 (MDR1+); MDR1, read-out: In vitro IC50 (nM) KB85",4.1 nM
same,Ratio KBV1/KB,KB-V1 (MDR1++),102.0
same,IC50,KB-V1 (MDR1++); read-out: In vitro IC50 (nM) KBV1,142 nM
"C=CC(C)(C)[C@H](NC(=O)[C@@H](NC)C(C)(C)c1ccccc1)C(=O)N(C)[C@H](/C=C(\C)C(=O)O)C(C)C [Example 120, (2E,4S)4-[{(2S)-3,3-dimethyl-2-[(N,β,β-trimethyl-L-phenylalanyl)amino]4-pentenoyl}(methyl)amino]-2,5-dimethyl-2-hexenoic Acid]",IC50,KB-3-1; [2],3.5 nM
same,Activity in nude mice animal model (% T/C @ MTD on days 11-15) LOX,[1],20%
COc1cc2cc(c1Cl)N(C)C(=O)C[C@H](OC(=O)[C@H](C)N(C)C(C)=O)[C@]1(C)O[C@H]1[C@H](C)[C@@H]1C[C@@](O)(NC(=O)O1)[C@H](OC)/C=C/C=C(\C)C2 [Maytansine],IC50,KB-3-1; [3],0.06 nM
same,IC50,KB-HTI-4.0; Homo sapiens,0.84 ± 0.19 nM
same,(RR) relative resistance vs. parental cells,KB-HTI-4.0,(14)
C=C(C)[C@@H]1NC(=O)[C@@H](NC)[C@@H](O)c2cc(Cl)c(O)c(c2)O[C@](C)(CC)[C@@H](C(=O)N2CC=C[C@H]2C(=O)N/C(C(=O)N/C(=C/C(=O)O)C(=O)O)=C(\C)CC)NC1=O [Phomopsin A],IC50,"KB-3-1; KB-3-1 parental, Table 8, read-out: KB-3-1 IC50",671 ± 55 nM
same,IC50,KB-HTI-4.0,3530 ± 2990 nM
same,(RR) relative resistance vs. parental cells,KB-HTI-4.0,(5)
CO[C@@H](/C(C)=C/C=C/C(C)=C/c1coc(C)n1)[C@@H](C)[C@@H]1C[C@H](O)[C@@]2(C)O[C@@H]2/C=C/[C@@H](C)[C@H]2C[C@H](CC(=O)O2)C[C@@H]2O[C@H]2C(=O)O1 [Rhizoxin],IC50,"KB-3-1; Homo sapiens, KB 3-1, KB-3-1 parental, Table 8, read-out: KB-3-1 IC50",9.13 ± 2.17 nM
same,IC50,KB-HTI-4.0; Homo sapiens,98.4 ± 37.6 nM
same,(RR) relative resistance vs. parental cells,KB-HTI-4.0,(11)
"CC[C@@]1(O)C(=O)OCc2c1cc1n(c2=O)Cc2cc3c(CN(C)C)c(O)ccc3nc2-1 [Topotecan, topotecan]",IC50,KB-3-1; [3],18.1 ± 2.98 nM
same,IC50,KB-HTI-4.0; Homo sapiens,1030 ± 541 nM
same,(RR) relative resistance vs. parental cells,KB-HTI-4.0,(57)
"CCC1=C[C@@H]2CN(C1)Cc1c([nH]c3ccccc13)[C@@](C(=O)OC)(c1cc3c(cc1OC)N(C)[C@H]1[C@@](O)(C(=O)OC)[C@H](OC(C)=O)[C@]4(CC)C=CCN5CC[C@]31[C@@H]54)C2 [vinorelbine, reference compound]",IC50,"KB-3-1; Homo sapiens, KB-3-1 parental, Table 3, read-out: KB-3-1 IC50, nM (N)",3.5 nM
same,IC50,KB-3-1; [3],1.22 ± 0.33 nM
same,IC50,KB-HTI-4.0; Homo sapiens,8.64 ± 2.94 nM
same,(RR) relative resistance vs. parental cells,KB-HTI-4.0,(7)
same,IC50,"KB-8-5 (MDR1+); MDR1, read-out: KB-8-5 (MDR1+) IC50, nM (N)",132 nM
same,"RR, relative resistance","KB-8-5 (MDR1+); IC50 KB-8-5 / IC50 KB-3-1, Table 3",38
same,resistance of KB-8-5 cells,"KB-8-5 (MDR1+); KB-8-5 (KB-85) vs KB-3-1, in vitro",38 fold
same,IC50,"KB-V1 (MDR1++); read-out: KB-V1 (MDR1++) IC50, nM (N)",> 3000 nM
same,"RR, relative resistance","KB-V1 (MDR1++); IC50 KB-V1 / IC50 KB-3-1, Table 3",>857
dolastatin,resistance of KB-3-1-derived cell lines selected with Example 129,KB-HTI-4.0; vs KB-3-1,28 fold
